Test results published in ChEMBL document CHEMBL1136837, “Unified QSAR approach to antimicrobials. 4. Multi-target QSAR modeling and comparative multi-distance study of the giant components of antiviral drug-drug complex networks” (Bioorg Med Chem, 2009).

How the values were obtained:
Vaccinia virus = assay: Antiviral activity against Vaccinia virus; assay type: functional, organism-based, Orthopoxvirus vaccinia; conditions: Orthopoxvirus vaccinia
Human betaherpesvirus 5 = assay: Antiviral activity against Human cytomegalovirus; assay type: functional, organism-based; conditions: Human betaherpesvirus 5
[1] = tested on: Human immunodeficiency virus 2; assay: Antiviral activity against HIV2; assay type: functional, organism-based
[2] = tested on: Human immunodeficiency virus 1; assay: Antiviral activity against HIV1; assay type: functional, organism-based
Human alphaherpesvirus 2 = assay: Antiviral activity against Herpes simplex virus 2; assay type: functional, organism-based
Human alphaherpesvirus 1 = assay: Antiviral activity against Herpes simplex virus 1; assay type: functional, organism-based
Human alphaherpesvirus 3 = assay: Antiviral activity against Varicella zoster virus; assay type: functional, organism-based
Human rhinovirus sp. = assay: Antiviral activity against Human rhinovirus; assay type: functional, organism-based

Row | Compound | IC50 (Vaccinia virus) [nM] | IC50 (Human betaherpesvirus 5) [nM] | IC50 [1] [nM] | IC50 [2] [nM] | IC50 (Human alphaherpesvirus 2; Human alphaherpesvirus 2) [nM] | IC50 (Human alphaherpesvirus 1; Human alphaherpesvirus 1) [nM] | IC50 (Human alphaherpesvirus 3) [nM] | IC50 (Human rhinovirus sp.) [nM] | IC50 (Human alphaherpesvirus 2) [nM] | IC50 (Human alphaherpesvirus 1) [nM]
1 | Nc1nc(N)c(Cc2ccccc2)c(OCCOCP(=O)(O)O)n1 | 1.2 | 0.15 | 0.3 | 0.3 | 0.66 | 1.2 | 0.15 |  |  | 
2 | N#CCc1c(N)nc(N)nc1OCCOCP(=O)(O)O | 1.2 | 0.15 | 0.3 | 0.3 | 1.2 | 1.2 | 0.11 |  |  | 
3 | Nc1nc(N)n(CCOCP(=O)(O)O)c(=O)c1-c1ccccc1 | 1.2 | 0.15 | 0.3 | 0.3 | 1.2 | 1.2 | 0.15 |  |  | 
4 | C=CCc1c(N)nc(N)n(CCOCP(=O)(O)O)c1=O | 1.2 |  | 0.3 | 0.3 | 0.77 | 1.2 | 0.15 |  |  | 
5 | C=CCc1c(N)nc(N)nc1OCCOCP(=O)(O)O | 1.2 | 0.15 | 0.79 | 0.3 | 1.2 | 1.2 | 0.15 |  |  | 
6 | Nc1nc(N)n(CCOCP(=O)(O)O)c(=O)c1CC(=O)O | 1.2 | 0.15 | 0.3 | 0.3 | 1.2 | 1.2 | 0.15 |  |  | 
7 | Nc1nc(N)n(CCOCP(=O)(O)O)c(=O)c1Cc1ccccc1 | 1.2 | 0.15 | 0.3 | 0.3 | 1.2 | 1.2 | 0.15 |  |  | 
8 | Nc1nc(N)c(-c2ccccc2)c(OCCOCP(=O)(O)O)n1 | 1.2 | 0.15 | 0.3 | 0.3 | 1.2 | 1.2 | 0.15 |  |  | 
9 | Nc1nc(N)c(CC(=O)O)c(OCCOCP(=O)(O)O)n1 | 1.2 | 0.15 | 0.3 | 0.3 | 1.2 | 1.2 | 0.15 |  |  | 
10 | CCOC(=O)/C=C/[C@H](CCC(N)=O)NC(=O)Cn1cccc(NC(=O)OCc2ccccc2)c1=O |  |  |  |  |  |  |  | 10000 |  | 
11 | CCOC(=O)/C=C/[C@H](CCC(N)=O)NC(=O)[C@H](Cc1ccccc1)n1cccc(NC(C)=O)c1=O |  |  |  |  |  |  |  | 888 |  | 
12 | CC(C)OP(=O)(COCCSc1cc(N)nc(N)n1)OC(C)C |  |  | 0.143 |  | 1.1 | 1.1 | 0.137 |  |  | 
13 | Nc1nc(N)c(C2CC2)c(OCCOCP(=O)(O)O)n1 | 1.2 | 1.2 | 0.3 | 0.3 | 1.2 | 1.2 | 1.2 |  |  | 
14 | Nc1nc(N)n(CCOCP(=O)(O)O)c(=O)c1C1CC1 | 1.2 | 0.15 | 0.3 | 0.3 | 0.12 | 1.2 |  |  |  | 
15 | N#CCc1c(N)nc(N)n(CCOCP(=O)(O)O)c1=O | 1.2 | 0.15 | 0.3 | 0.3 | 1.2 | 1.2 | 0.084 |  |  | 
16 | CCOC(=O)/C=C/[C@H](CCC(N)=O)NC(=O)[C@H](CC1CCCCC1)n1cccc(NC(=O)OCc2ccccc2)c1=O |  |  |  |  |  |  |  | 178 |  | 
17 | CCOC(=O)/C=C/[C@H](CCC(N)=O)NC(=O)[C@H](Cc1ccccc1)n1cccc(NC(=O)C(C)(C)C)c1=O |  |  |  |  |  |  |  | 518 |  | 
18 | CCOC(=O)/C=C/[C@H](CCC(N)=O)NC(=O)[C@H](Cc1ccccc1)n1cccc(NC(=O)C2SCCS2)c1=O |  |  |  |  |  |  |  | 104 |  | 
19 | CCOC(=O)/C=C/[C@H](CCC(N)=O)NC(=O)[C@H](Cc1ccc(F)c(F)c1)n1cccc(NC(=O)OCc2ccccc2)c1=O |  |  |  |  |  |  |  | 3 |  | 
20 | CCOC(=O)/C=C/[C@H](CCC(N)=O)NC(=O)[C@H](Cc1ccc(F)cc1)n1cccc(NC(=O)OCc2ccccc2)c1=O |  |  |  |  |  |  |  | 14 |  | 
21 | Nc1nc(O)cc(OCCOCP(=O)(O)O)n1 | 0.18 | 0.19 | 30.2 |  | 0.0362 | 0.0362 |  |  | 0.033 | 0.025
